Assay results as given in article PMC6934184, “Selective DNA-PKcs inhibition extends the therapeutic index of localized radiotherapy and chemotherapy” (The Journal of Clinical Investigation, 2019).

Tested on: Calu-6 subcutaneous xenografts
Assay: subcutaneous Calu-6 xenograft with tumor-localized irradiation
Type: in vivo, mouse
Conditions: for mean tumor volume: NU5455 30 mg/kg oral single dose 30 min before 3.3 Gy
Protocol: Subcutaneous non–small cell lung cancer xenografts were generated in CD-1 nude or BALB/c nude mice using A549 and Calu-6 cells, respectively, as previously described ([53]). When tumors reached 100 mm^3, mice were randomized into 4 groups (n = 7–9 per group) to receive (a) vehicle (orally) 30 minutes before mock radiation, (b) NU5455 (30 mg/kg orally) 30 minutes before mock radiation, (c) targeted tumor radiation at a single dose of 3.3 or 10 Gy, or (d) NU5455 (30 mg/kg orally) 30 minutes before 3.3 Gy or 10 Gy targeted tumor radiation. For targeted irradiation of subcutaneous tumors, anesthetized mice were restrained in a lead-shielded container with only the tumor exposed, and x-ray radiation applied using an RS320 irradiation system (Gulmay Medical) at a dose rate of 1.82 Gy/min.
Establishment of subcutaneous NSCLC xenograft models
NSCLC subcutaneous xenografts were generated as previously described ( 53). Briefly, 6-8 week-old female BALB/c nude or CD-1 nude mice (Charles River Laboratories) were anaesthetized with 2% isoflurane (Zoetis), and 5 x 10^6 Calu-6 or A549 cells in 50% Matrigel (BD Biosciences), respectively, were subcutaneously injected into a single site on the back of the mouse. Mouse weights and tumor volumes (1/2 x length x width x depth) were measured three times a week.
Targeted radiotherapy in subcutaneous and orthotopic NSCLC xenograft models When subcutaneous xenografts reached 100 mm3, mice were randomized into four groups (n = 7 - 11/group): (i) N-Methyl-2-pyrrolidone (NMP): 30% Encapsin : PEG400 (1:6:3 v/v/v) vehicle p.o. 30 minutes prior to mock radiation. (ii) NU5455 (30 mg/kg p.o.) 30 minutes prior to mock radiation. (iii) Targeted tumor radiation at a single dose of 3.3 or 10 Gy. (iv) NU5455 (30 mg/kg p.o.) 30 minutes prior to 3.3 Gy or 10 Gy targeted tumor radiation. For targeted irradiation of subcutaneous tumors, anaesthetized mice were restrained in a lead -shielded container with only the tumor exposed. X -ray radiation was applied using an RS320 irradiation system ( Gulmay Medical) at a dose rate of 1.82 Gy/minute. Three animals from each group were humanely killed at 5 and/or 24 hours after irradiation, and the tumors processed for immunohistochemistry (IHC). […]
Immunohistochemistry in lung tumor xenografts and normal lung tissue
Tissues were fixed in 4% paraformaldehyde (PFA) and paraffin -embedded. Sections were stained using primary antibodies against γH2AX (JBW301, 1:1000, Millipore #05-636), 53BP1 (1:500, Cell Signaling #4937), and cleaved caspase 3 (CC3, 1:600, Cell Signaling #9661) and the EnVision G2 Doublestain System (Dako #K5361), according to the manufacturer’s instructions. One tissue section from each of 3 mice per group was examined, and the whole

Q: What does the source list for `CN(C(=O)CN1CCOCC1)c1ccc2sc3c(-c4cccc5c(=O)cc(N6CC7CCC(C6)O7)oc45)cccc3c2c1` [NU5455]?
A: adverse effect or impact on body weight (NU5455 30 mg/kg oral + 10 Gy): without any adverse effect or impact on body weight; antitumor response (NU5455 30 mg/kg oral + 10 Gy): regression of Calu-6 tumors was induced; mean tumor volume (day 0): 104 mm^3; mean tumor volume (day 6): 102 mm^3; mice having no evidence of tumor at the end of the experiment (day 38, NU5455 30 mg/kg oral + 10 Gy): 3 of 6; radiation-induced γH2AX foci remaining, fold greater with concomitant NU5455 (tumor, 5 hours after 3.3 Gy, 30 mg/kg oral): 3.0 fold
